Laboratory results from patent publication US20100311756A1, “METHODS FOR DELAYING THE PROGRESSION OF AT LEAST ONE OF CARDIAC HYPERTROPHY, CARDIAC REMODELING OR LEFT VENTRICULAR FUNCTION OR THE ONSET OF HEART FAILURE IN SUBJECTS IN NEED OF TREATMENT THEREOF” (TAKEDA PHARMACEUTICALS NORTH AMERICA, INC., priority 2009, published 2010).
“Also recorded” adds a separate entry of the source. Marks after values point to notes of the source that are not given here.

Legend:
[1] = system: mice subjected to TAC or sham surgery; assay: TAC or sham surgery in mice, Protocol 2: febuxostat or allopurinol for three weeks beginning seven days after TAC; type: in vivo; conditions: for Anterior wall thickness at end-diastole / Anterior wall thickness at end-systole / LV ejection fraction / LV end-diastolic diameter / LV end-systolic diameter / LV fractional shortening / Lung weight / Lung/body weight / Posterior wall thickness at end-diastole / Posterior wall thickness at end-systole / Ventricle weight / Ventricle/body weight: drinking water (FBS 0.05 mg/ml, allopurinol 0.15 mg/ml) three weeks from day 7; for Survival rate: over the three-week treatment period; for TAC-induced ventricular fibrosis: histological staining
Source text: (§1) • Mice. Male C57/BL6 mice at 8-9 weeks of age were purchased from Jackson Laboratories (Bar Harbor, Me.) for use in this study. Mice were housed in an air-conditioned room with a 12-hour:12-hour light-dark cycle, received standard mouse chow, and drank tap water. This study was approved by the Institutional Animal Care and Use Committee of the University of Minnesota. • Experimental Protocol 1. This protocol was designed to determine whether febuxostat (2-[3-cyano-4-(2-methylpropoxy)phenyl]-4-methylthiazole-5-carboxylic acid) treatment, beginning immediately after the onset of acute pressure overload, could protect against transverse aortic constriction (TAC)-induced left ventricular (LV) hypertrophy, dysfunction and mortality. Three treatment groups were included (See Table 1, below): sham-operated mice (n=20), TAC mice treated with vehicle (0.5% methylcellulose) (n=30), and TAC mice treated with febuxostat (suspension in 0.5% methylcellulose) (n=30). To generate LV hypertrophy in a short time period with a significant incidence of cardiac mortality, TAC was created by ligating the transverse aorta against a 27 G needle to create severe LV pressure overload. Since mice tend to take in less water and food during the first 1-3 days after the TAC procedure, febuxostat (5 mg/kg/day in 250 μl vehicle) or vehicle (250 μl) was administered daily by oral gavage for a total of 8 days, with the first dose administered on the day of the surgery after the animal awoke from anesthesia (˜60 min after the TAC procedure). On the eighth day, LV function was assessed by echocardiography approximately 1 hour after the last febuxostat or vehicle dose. Approximately 3 hours after echocardiographic evaluation (4 hours after the last febuxostat or vehicle dose), the mice were weighed and blood samples collected. The animals were euthanized and the heart and lungs excised; the right and left atria were trimmed away, and the ventricles and lungs were weighed. Tissue from the left ventricle was used for histological evaluation and Western blots. • Experimental Protocol 2. This protocol was designed to determine whether administration of febuxostat (FBS) or allopurinol (AL) beginning after the onset of cardiac hypertrophy, LV dysfunction and heart failure could exert a protective effect. For this protocol, mice subjected to TAC (using a 26 gauge (G) needle to generate moderate TAC) or sham surgery were divided into six experimental groups as described in Table 1, below. Beginning seven days after TAC, animals were treated with vehicle (0.01 mg/ml NaCl, equivalent salt content as in the FBS drinking water), FBS (0.05 mg/ml) or AL (0.15 mg/ml) in drinking water for three weeks. Following three weeks of treatment, ventricular function was assessed by echocardiography. Blood samples and cardiac tissue were collected during 2-3 hours after the echocardiographic evaluation as described previously in Protocol 1.
(§2) • Minimally Invasive TAC Procedure. TAC was performed using the minimally invasive suprasternal approach described by Hu et al. (See, Hu et al., Am. J. Physiol. Heart Circ. Physiol., 3:H1261-9 (2003)). Mice were anesthetized with a mixture of 80 mg/kg ketamine and 30 mg/kg xylazine intraperitoneally. A horizontal incision was made at the level of the suprasternal notch to allow direct visualization of the transverse aorta without entering the pleural space. With the aid of a dissecting microscope, aortic constriction was performed by ligating the aorta between the right innominate artery and the left carotid artery over a 27 G) needle using 5-0 silk suture. The needle was immediately removed after ligation, leaving the aortic constriction in place. The incision was closed and the animals were allowed to recover. Analgesia was provided before the mice awoke from anesthesia. Sham surgery utilized the same procedure but without aortic ligation. • Echocardiography.

[2] = Schumacher, Expert Opin. Invest. Drugs 2005; cited from earlier work
[3] = system: TAC mice; assay: Transverse aortic constriction (TAC) in mice, Protocol 1: febuxostat for 8 days beginning ~60 min after TAC; type: in vivo
Source text: as §1, §2

[4] = sham-operated mice, three-week treatment
[5] = sham-operated mice, three-week treatment, versus vehicle
[6] = 5 mg/kg/day oral gavage for 8 days from ~60 min after TAC
[7] = 8 days, versus TAC vehicle, listed as FBS

Compound: Oc1ncnc2[nH]ncc12 [allopurinol]
- Anterior wall thickness at end-diastole ([1]; TAC mice): 0.87 ± 0.02^a mm
- Anterior wall thickness at end-systole ([1]; TAC mice): 1.20 ± 0.03^a mm
- LV ejection fraction ([1]; TAC mice): 60.2 ± 2.2^a %
- LV end-diastolic diameter ([1]; TAC mice): 4.21 ± 0.08^a mm
- LV end-systolic diameter ([1]; TAC mice): 3.09 ± 0.10^a mm
- LV fractional shortening ([1]; TAC mice): 26.8 ± 1.4^a %
- Lung weight ([1]; TAC mice): 166 ± 16 mg
- Lung/body weight ([1]; TAC mice): 6.98 ± 0.94 mg/g
- Posterior wall thickness at end-diastole ([1]; TAC mice): 0.88 ± 0.02^a mm
- Posterior wall thickness at end-systole ([1]; TAC mice): 1.20 ± 0.03^a mm
- Ventricle weight ([1]; TAC mice): 153 ± 6^a mg
- Ventricle/body weight ([1]; TAC mice): 6.27 ± 0.36^a mg/g
- Lung/body weight ([1]; TAC mice, listed as AL): no significant effect
- Ventricle/body weight ([1]; TAC mice, listed as AL): no significant effect
- Survival rate ([1]; TAC mice): 76%
- Plasma uric acid ([1]; TAC mice, three-week treatment): decreased
- TAC-induced ventricular fibrosis ([1]; TAC mice, three-week treatment): not affected
- LV function and dimensions (echocardiography) ([1]; TAC mice, three-week treatment, versus vehicle-treated TAC mice): no effect
- Anterior wall thickness at end-diastole ([1]; sham mice): 0.74 ± 0.01 mm
- Anterior wall thickness at end-systole ([1]; sham mice): 1.11 ± 0.04 mm
- LV ejection fraction ([1]; sham mice): 77.7 ± 2.1%
- LV end-diastolic diameter ([1]; sham mice): 3.71 ± 0.06 mm
- LV end-systolic diameter ([1]; sham mice): 2.22 ± 0.07 mm
- LV fractional shortening ([1]; sham mice): 40.1 ± 2.0%
- Lung weight ([1]; sham mice): 131 ± 3 mg
- Lung/body weight ([1]; sham mice): 5.40 ± 0.14 mg/g
- Posterior wall thickness at end-diastole ([1]; sham mice): 0.74 ± 0.01 mm
- Posterior wall thickness at end-systole ([1]; sham mice): 1.11 ± 0.03 mm
- Ventricle weight ([1]; sham mice): 100 ± 3 mg
- Ventricle/body weight ([1]; sham mice): 4.13 ± 0.12 mg/g
- Lung weight ([1]; sham mice, listed as AL): no significant effects
- Lung/body weight ([1]; sham mice, listed as AL): no significant effects
- Ventricle weight ([1]; sham mice, listed as AL): no significant effects
- Ventricle/body weight ([1]; sham mice, listed as AL): no significant effects
- LV function and dimensions (any of the parameters evaluated by echocardiography) [1, 4]: no effect
- Plasma uric acid [1, 4]: significantly decreased
- Route of elimination [2]: mainly cleared by the kidneys

Compound: Cc1nc(-c2ccc(OCC(C)C)c(C#N)c2)sc1C(=O)O [febuxostat, 2-[3-cyano-4-(2-methylpropoxy)phenyl]-4-methylthiazole-5-carboxylic acid]
- Anterior wall thickness at end-diastole ([1]; TAC mice): 0.85 ± 0.02^a mm
- Anterior wall thickness at end-systole ([1]; TAC mice): 1.19 ± 0.02^a mm
- LV ejection fraction ([1]; TAC mice): 63.9 ± 1.9^a %
- Lung weight ([1]; TAC mice): 170 ± 17 mg
- Lung/body weight ([1]; TAC mice): 6.59 ± 0.64 mg/g
- Posterior wall thickness at end-diastole ([1]; TAC mice): 0.84 ± 0.02^a mm
- Posterior wall thickness at end-systole ([1]; TAC mice): 1.18 ± 0.02^a mm
- Ventricle weight ([1]; TAC mice): 158 ± 6^a mg
- Ventricle/body weight ([1]; TAC mice): 6.11 ± 0.21^a mg/g
- Survival rate ([1]; TAC mice): 96%
- LV end-diastolic wall thickness ([1]; TAC mice, three-week treatment): unchanged
- Plasma uric acid ([1]; TAC mice, three-week treatment): decreased
- TAC-induced cardiac myocyte hypertrophy ([1]; TAC mice, three-week treatment): no effect
- TAC-induced ventricular fibrosis ([1]; TAC mice, three-week treatment): not affected
- Improvement (increase) of LV ejection fraction ([1]; TAC mice, three-week treatment, versus vehicle): ~10%
- Anterior wall thickness at end-diastole ([1]; sham mice): 0.72 ± 0.02 mm
- Anterior wall thickness at end-systole ([1]; sham mice): 1.18 ± 0.04 mm
- LV ejection fraction ([1]; sham mice): 85.5 ± 1.6^a %
- LV fractional shortening ([1]; sham mice): 48.3 ± 2.2^a %
- Lung/body weight ([1]; sham mice): 5.42 ± 0.11 mg/g
- Posterior wall thickness at end-diastole ([1]; sham mice): 0.72 ± 0.02 mm
- Posterior wall thickness at end-systole ([1]; sham mice): 1.18 ± 0.04^a mm
- Ventricle/body weight ([1]; sham mice): 3.94 ± 0.07 mg/g
- End-diastolic wall thickness [1, 4]: did not change
- Plasma uric acid [1, 4]: significantly decreased
- Increase in LV ejection fraction [1, 5]: ~9%
- Increase in LV fractional shortening [1, 5]: ~15%
- Anterior wall thickness at end-diastole [3, 6]: 0.84 ± 0.02 mm
- Anterior wall thickness at end-systole [3, 6]: 1.10 ± 0.04 mm
- LV fractional shortening [3, 6]: 31.5 ± 2.2*^,# %
- Lung weight [3, 6]: 163 ± 16 mg
- Posterior wall thickness at end-diastole [3, 6]: 0.83 ± 0.02*^,# mm
- Posterior wall thickness at end-systole [3, 6]: 1.10 ± 0.03 mm
- Ventricle weight [3, 6]: 138 ± 7.0*^,# mg
- Cardiac myocyte diameter ([3]; 8 days): 16.3±0.3 μm
- Mortality (mice died) ([3]; 8 days): 14 out of 30
- Myocardial fibrosis ([3]; 8 days): 8.3±2. %
- TAC-induced left ventricular (LV) hypertrophy ([3]; 8 days, FIG. 1A): significantly attenuated
- TAC-induced pulmonary congestion ([3]; 8 days, FIG. 1B): tended to decrease
- TAC-induced cardiac sudden death / mortality (effect) ([3]; 8 days, FIG. 1C): not affected; also recorded: no effect
- TAC-induced increase of myocardial ANP ([3]; 8 days, Western blot of LV): significantly attenuated
- TAC-induced increase of myocardial collagen III ([3]; 8 days, Western blot of LV): significantly attenuated
- TAC-induced increase of myocardial nitrotyrosine ([3]; 8 days, Western blot of LV): significantly blunted
- TAC-induced increase of myocardial pre-collagen I ([3]; 8 days, Western blot of LV): significantly attenuated
- TAC-induced increase of p-Erk Thr202/204 ([3]; 8 days, Western blot of LV): significantly attenuated
- TAC-induced increase of p-mTOR Ser2488 ([3]; 8 days, Western blot of LV): significantly attenuated
- TAC-induced increase of t-Erk ([3]; 8 days, Western blot of LV): significantly attenuated
- TAC-induced increase of myocardial nitrotyrosine ([3]; 8 days, Western blot of LV, listed as FBS): significantly attenuated
- Decrease of pulmonary congestion (ratio of lung weight to body weight) ([3]; 8 days, versus TAC vehicle): about 18%
- LV diameter at end-diastole ([3]; 8 days, versus TAC vehicle): no significant effect
- Plasma uric acid ([3]; 8 days, versus TAC vehicle): significantly decreased
- Reduction of ventricular hypertrophy (ratio of ventricular mass to body weight) ([3]; 8 days, versus TAC vehicle): approximately 15%
- TAC-induced decrease of LV ejection fraction ([3]; 8 days, versus TAC vehicle): attenuated
- TAC-induced decrease of LV fractional shortening ([3]; 8 days, versus TAC vehicle): attenuated
- TAC-induced increase of LV diameter at end-systole ([3]; 8 days, versus TAC vehicle): trend toward attenuating
- TAC-induced increase of LV end-diastolic wall thickness ([3]; 8 days, versus TAC vehicle): significantly attenuated
- LV diameter at end-diastole [3, 7]: not changed
- TAC-induced decrease of LV ejection fraction [3, 7]: significantly attenuated
- TAC-induced increase of LV diameter at end-systole [3, 7]: trend toward attenuation
- Route of elimination [2]: hepatic metabolism
